Drawing on ChEMBL document CHEMBL1157111, “Oridamycins A and B, anti-Saprolegnia parasitica indolosesquiterpenes isolated from Streptomyces sp. KS84” (2010), this text covers MIC for two molecules.

The structures appear in SMILES notation. ≈ marks a conversion by molar mass, not a printed value. Calls of active or inactive are those of the source. The rule behind the calls is not given here.

The subject of one test is Saprolegnia parasitica. The test can be described thus: Antifungal activity against Saprolegnia parasitica assessed as inhibition of hyphae elongation after 24 hrs. The format is functional.
A further test deals with Phoma. Description: Antifungal activity against Phoma CCF3818 assessed as inhibition of hyphae elongation after 24 hrs. The format is functional. The following applies: CCF3818, 24 h.
The next test concerns Saccharomyces cerevisiae. Description: Antifungal activity against Saccharomyces cerevisiae at 1000 ug/ml after 24 hrs. It counts as functional, organism-based.

In general, MIC refers to the lowest concentration that inhibits growth of the organism. For `C[C@]1(C(=O)O)[C@@H](O)CC[C@]2(C)c3cc4c(cc3CC[C@@H]12)[nH]c1ccccc14` [ORIDAMYCIN A], the values for the minimal inhibitory concentration (MIC) in the test on Saprolegnia parasitica and in the test with Phoma were 3 µg/mL (≈ 8.25 µM) and 242 µg/mL (≈ 666 µM), respectively. The MIC result in the test with Saccharomyces cerevisiae was “inactive”.
Turning to `C[C@@H]1C[C@@H]([C@H](O)CC2CC(=O)NC(=O)C2)C(=O)[C@@H](C)C1` [CYCLOHEXIMIDE], in the test with Phoma, the MIC was determined as 25 µg/mL (≈ 88.9 µM).
